Assay results: patent US20230227426A1 (Akebia Therapeutics, Inc., priority 2020, published 2023)

Columns and labels:
Format in all cases: biochemical
[1] = target: T1, full-length human PHD2 (Homo sapiens, UniProt Q9GZT9); assay: TR-FRET assay for PHD enzymes, PHD2; settings: read-out: PHD2 IC5 0
T1 construct: The PHD2 construct contained amino acids 1 to 426 of PHD2; His tag (N, cleaved yes); TEV protease cleavage site (N, cleaved yes); host or cells: Sf9 insect cells (baculovirus)
Experimental: (§1) The resulting proximity of the donor fluorophore complex, monoclonal antibody anti-6His-Terbium (Tb)-cryptate Gold, bound to the His-tagged VHL protein, EloB, EloC complex (His-VBC) and the acceptor fluorophore, SA-D2 complex, bound to HIF-1α-hydroxyproline results in a fluorescence resonance energy transfer signal that can be detected and quantified
(§2) For this, 5 μL PHD inhibitor compound was serially diluted with dilution buffer (50 mM HEPES [4-(2-hydroxyethyl)-1-piperazineethanesulfonic acid] pH 7.5, 50 mM sodium chloride [NaCl], 0.01% Tween-20, 0.01% purified bovine serum albumin [BSA]) and mixed with 5 μL PHD enzyme mix prepared as a 4× concentrate in the dilution buffer containing PHD enzyme (60 nM PHD1, 20 nM PHD2, 140 nM PHD3), 40 μM ferrous ammonium sulfate (FAS), 4 mM sodium (Na) ascorbate.
(§3) The IC50 values (mean, standard deviation, standard error of the mean, geometric mean and 95% confidence interval) were determined using a four-parameter curve-fit using GraphPad Prism 7.0 (GraphPad, La Jolla, Calif., USA) and represent the compound concentration plotted against the calculated ratio of 665 nm and 615 nm.

[2] = target: T2, full-length human PHD1 (Homo sapiens, UniProt Q96KS0); assay: TR-FRET assay for PHD enzymes, PHD1
T2 construct: FLAG (N); purchased Active Motif (Carlsbad, Calif., USA) 81064; host or cells: baculovirus expression system
Description: as §1
Recombinant human PHD1 protein (catalog #81064, Lot #24717001) was purchased from Active Motif (Carlsbad, Calif., USA). PHD1 was expressed in a baculovirus expression system as the full-length protein (NCBI accession number NP_542770.2) with an N-terminal FLAG tag (molecular weight 44.9 kDa). Purity (>90%) was assessed by SDS-PAGE.
as §2, §3

[3] = target: T3, full-length human PHD3 (Homo sapiens, UniProt Q9H6Z9); assay: TR-FRET assay for PHD enzymes, PHD3
T3 construct: 6-His (N); purchased Active Motif (Carlsbad, Calif., USA) 81033; host or cells: E. coli
Description: as §1
Recombinant human PHD3 protein (molecular weight 31.1 kDa) was purchased from Active Motif (Carlsbad, Calif., USA). It was expressed in E. coli as the full-length protein (NCBI accession number NP_071356.1) with an N-terminal 6-His tag (catalog #81033, Lot #24417001).
as §2, §3

T1 sequence (Q9GZT9 whole entry, the tested form may be a part): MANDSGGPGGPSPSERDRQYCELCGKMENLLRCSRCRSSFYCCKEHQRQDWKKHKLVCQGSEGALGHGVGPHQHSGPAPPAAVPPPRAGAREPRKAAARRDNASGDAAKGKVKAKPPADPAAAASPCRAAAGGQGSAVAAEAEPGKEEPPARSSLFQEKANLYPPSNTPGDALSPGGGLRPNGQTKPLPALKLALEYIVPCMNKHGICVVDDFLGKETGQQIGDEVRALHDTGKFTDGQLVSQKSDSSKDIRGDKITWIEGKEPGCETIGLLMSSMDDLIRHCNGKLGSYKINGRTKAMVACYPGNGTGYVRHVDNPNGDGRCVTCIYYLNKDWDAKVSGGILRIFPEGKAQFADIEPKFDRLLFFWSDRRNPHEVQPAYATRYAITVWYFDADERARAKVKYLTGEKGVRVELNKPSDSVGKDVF
T3 sequence (Q9H6Z9 whole entry): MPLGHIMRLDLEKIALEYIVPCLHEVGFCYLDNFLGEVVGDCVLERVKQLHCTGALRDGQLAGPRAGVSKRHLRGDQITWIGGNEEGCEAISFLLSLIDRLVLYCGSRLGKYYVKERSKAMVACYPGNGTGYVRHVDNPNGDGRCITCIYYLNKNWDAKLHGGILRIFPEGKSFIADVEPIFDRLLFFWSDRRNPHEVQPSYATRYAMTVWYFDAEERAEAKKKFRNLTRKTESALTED
T2 sequence (Q96KS0 whole entry): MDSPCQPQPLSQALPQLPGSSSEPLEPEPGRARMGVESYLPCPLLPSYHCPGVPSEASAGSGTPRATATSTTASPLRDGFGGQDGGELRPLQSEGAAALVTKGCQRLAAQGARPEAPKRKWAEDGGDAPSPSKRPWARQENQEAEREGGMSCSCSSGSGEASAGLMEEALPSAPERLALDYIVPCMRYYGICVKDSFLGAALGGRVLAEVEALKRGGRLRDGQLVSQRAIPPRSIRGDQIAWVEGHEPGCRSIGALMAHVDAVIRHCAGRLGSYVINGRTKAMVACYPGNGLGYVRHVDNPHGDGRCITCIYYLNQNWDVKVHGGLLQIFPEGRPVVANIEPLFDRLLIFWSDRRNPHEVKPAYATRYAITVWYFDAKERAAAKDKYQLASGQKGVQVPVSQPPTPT

Compound | IC50 [1] | IC50 [2] | IC50 [3]
Cc1nn(-c2ccc(C(=O)O)cn2)c(O)c1-c1ccc(Cl)cc1 [Compound 15] | < 100 nM | < 100 nM | 
Cc1cc(-c2c(C)nn(-c3ccc(C(=O)O)cn3)c2O)ccc1C#N [Compound 29, 6-(4-(4-cyano-3-methylphenyl)-5-hydroxy-3-methyl-1H-pyrazol-1-yl)nicotinic acid] | < 100 nM | < 100 nM | 
O=C(O)c1ccc(-n2ncc(-c3ccc(Br)cc3)c2O)nc1 [Compound 3, 6-(4-(4-Bromophenyl)-5-hydroxy-1H-pyrazol-1-yl) nicotinic acid] | < 100 nM | < 100 nM | 100 to 1000 nM
N#Cc1ccc(-c2cnn(-c3ccc(C(=O)O)cn3)c2O)c(Cl)c1 [Compound 30, 6-(4-(2-chloro-4-cyanophenyl)-5-hydroxy-1H-pyrazol-1-yl)nicotinic acid] | < 100 nM | < 100 nM | 
Cc1nn(-c2cnc(C(=O)O)cn2)c(O)c1-c1ccc(C#N)cc1 [Compound 34, 5-(4-(4-cyanophenyl)-5-hydroxy-3-methyl-1H-pyrazol-1-yl)pyrazine-2-carboxylic acid] | < 100 nM | < 100 nM | 
CC(C)OC(=O)c1ccc(-n2ncc(-c3ccc(C#N)cc3)c2O)nc1 [Compound 37, Isopropyl 6-(4-(4-cyanophenyl)-5-hydroxy-1H-pyrazol-1-yl)nicotinate] | < 100 nM | < 100 nM | < 100 nM
Cc1nn(-c2ccc(C(=O)O)cn2)c(O)c1-c1ccc(C#N)c(Cl)c1 [Compound 44, 6-(4-(3-chloro-4-cyanophenyl)-5-hydroxy-3-methyl-1H-pyrazol-1-yl)nicotinic acid] | < 100 nM | < 100 nM | 
CCOC(=O)c1ccc(-n2ncc(-c3ccc(C#N)cc3)c2O)nc1 [Compound 36, Ethyl 6-(4-(4-cyanophenyl)-5-hydroxy-1H-pyrazol-1-yl)nicotinate] | < 100 nM | < 100 nM | < 100 nM
O=C(O)c1ccc(-n2ncc(-c3ccc(Cl)cc3)c2O)nc1 [Compound 5, 6-(4-(4-Chlorophenyl)-5-hydroxy-1H-pyrazol-1-yl)nicotinic acid] | < 100 nM | < 100 nM | 100 to 1000 nM
N#Cc1ccc(-c2cnn(-c3ncc(C(=O)O)cc3F)c2O)cc1 [Compound 14, 6-(4-(4-cyanophenyl)-5-hydroxy-1H-pyrazol-1-yl)-5-fluoronicotinic acid] | 1000 to 10000 nM | 1000 to 10000 nM | 
O=C(O)c1ccc(-n2ncc(-c3ccc(F)cc3)c2O)nc1 [Compound 7, 6-(4-(4-Fluorophenyl)-5-hydroxy-1H-pyrazol-1-yl)nicotinic acid] | < 100 nM | < 100 nM | 1000 to 10000 nM
Cc1nn(-c2ccc(C(=O)OC(C)(C)C)cn2)c(O)c1-c1ccc(C#N)cc1 [Compound 10, Tert-butyl 6-(4-(4-cyanophenyl)-5-hydroxy-3-methyl-1H-pyrazol-1-yl)nicotinate] | < 100 nM | < 100 nM | ≥ 10000 nM
Cc1nn(-c2ccc(C(=O)O)cn2)c(O)c1-c1ccc(C#N)c(F)c1 [Compound 23, 6-(4-(4-cyano-3-fluorophenyl)-5-hydroxy-3-methyl-1H-pyrazol-1-yl)nicotinic acid] | < 100 nM | < 100 nM | 
COc1ccc(-c2c(C)nn(-c3ccc(C(=O)O)cn3)c2O)cc1C [Compound 32, 6-(5-hydroxy-4-(4-methoxy-3-methylphenyl)-3-methyl-1H-pyrazol-1-yl)nicotinic acid] | 100 to 1000 nM | 100 to 1000 nM | 
Cc1nn(-c2ccc(C(=O)O)cn2)c(O)c1-c1ccc(Cl)c(F)c1 [Compound 26, 6-(4-(4-chloro-3-fluorophenyl)-5-hydroxy-3-methyl-1H-pyrazol-1-yl)nicotinic acid] | < 100 nM | < 100 nM | 100 to 1000 nM
Cc1nn(-c2ccc(C(=O)O)cn2)c(O)c1-c1ccc(Cl)cn1 [Compound 20, 6-(4-(5-chloropyridin-2-yl)-5-hydroxy-3-methyl-1H-pyrazol-1-yl)nicotinic acid] | 100 to 1000 nM | < 100 nM | 
Cc1cc(C#N)ccc1-c1cnn(-c2ccc(C(=O)OC(C)(C)C)cn2)c1O [Compound 8, Tert-butyl 6-(4-(4-cyano-2-methylphenyl)-5-hydroxy-1H-pyrazol-1-yl)nicotinate] | < 100 nM | < 100 nM | < 100 nM

Compound | IC50 [1] | IC50 [2] | IC50 [3]
Cc1cc(C#N)cc(C)c1-c1cnn(-c2ccc(C(=O)O)cn2)c1O [Compound 31, 6-(4-(4-cyano-2,6-dimethylphenyl)-5-hydroxy-1H-pyrazol-1-yl)nicotinic acid] | 100 to 1000 nM | < 100 nM | 
N#Cc1ccc(-c2cnn(-c3ccc(C(=O)O)cn3)c2O)c(O)c1 [Compound 21, 6-(4-(4-cyano-2-hydroxyphenyl)-5-hydroxy-1H-pyrazol-1-yl)nicotinic acid] | < 100 nM | < 100 nM | 100 to 1000 nM
COc1ccc(-c2cnn(-c3ccc(C(=O)O)cn3)c2O)cn1 [Compound 43, 6-(5-Hydroxy-4-(6-methoxypyridin-3-yl)-1H-pyrazol-1-yl)nicotinic acid] | < 100 nM | < 100 nM | 
CC(C)(C)OC(=O)c1ccc(-n2ncc(-c3ccc(F)cc3)c2O)nc1 [Compound 6, Tert-butyl 6-(4-(4-fluorophenyl)-5-hydroxy-1H-pyrazol-1-yl)nicotinate] | 1000 to 10000 nM | < 100 nM | 
Cc1nn(-c2ccc(C(=O)O)cn2)c(O)c1-c1ccc(C#N)cc1F [Compound 25, 6-(4-(4-cyano-2-fluorophenyl)-5-hydroxy-3-methyl-1H-pyrazol-1-yl)nicotinic acid] | < 100 nM | < 100 nM | 
O=C(O)c1ccc(-n2ncc(-c3ccc(Cl)nc3)c2O)nc1 [Compound 17, 6-(4-(6-chloropyridin-3-yl)-5-hydroxy-1H-pyrazol-1-yl)nicotinic acid] | < 100 nM | < 100 nM | < 100 nM
O=C(O)c1ccc(-n2ncc(-c3ccc(Cl)c(O)c3)c2O)nc1 [Compound 22, 6-(4-(4-chloro-3-hydroxyphenyl)-5-hydroxy-1H-pyrazol-1-yl)nicotinic acid] | < 100 nM | < 100 nM | 
CC(C)(C)OC(=O)c1ccc(-n2ncc(-c3ccc(Br)cc3)c2O)nc1 [Compound 2, Tert-butyl 6-(4-(4-bromophenyl)-5-hydroxy-1H-pyrazol-1-yl)nicotinate] | ≥ 10000 nM | 100 to 1000 nM | 
CC(C)(C)OC(=O)c1ccc(-n2ncc(-c3ccc(Cl)cc3)c2O)nc1 [Compound 4, Tert-butyl 6-(4-(4-chlorophenyl)-5-hydroxy-1H-pyrazol-1-yl)nicotinate] | 1000 to 10000 nM | 100 to 1000 nM | 
Cc1nn(-c2ccc(C(=O)O)cn2)c(O)c1-c1ccc(Cl)c(C#N)c1 [Compound 42, 6-(4-(4-chloro-3-cyanophenyl)-5-hydroxy-3-methyl-1H-pyrazol-1-yl)nicotinic acid] | < 100 nM | < 100 nM | 
N#Cc1ccc(-c2cnn(-c3ccc(C(=O)O)cn3)c2O)c(C(F)(F)F)c1 [Compound 40, 6-(4-(4-cyano-2-(trifluoromethyl)phenyl)-5-hydroxy-1H-pyrazol-1-yl)nicotinic acid] | < 100 nM | < 100 nM | 
CCc1cc(C#N)ccc1-c1cnn(-c2ccc(C(=O)O)cn2)c1O [Compound 33, 6-(4-(4-cyano-2-ethylphenyl)-5-hydroxy-1H-pyrazol-1-yl)nicotinic acid] | < 100 nM | < 100 nM | 
Cc1nn(-c2cc(N)c(C(=O)O)cn2)c(O)c1-c1ccc(C#N)cc1 [Compound 27, 4-amino-6-(4-(4-cyanophenyl)-5-hydroxy-3-methyl-1H-pyrazol-1-yl)nicotinic acid] | < 100 nM | < 100 nM | 
Cc1nn(-c2ccc(C(=O)O)cn2)c(O)c1-c1cc[n+]([O-])cc1 [Compound 41, 4-(1-(5-carboxypyridin-2-yl)-5-hydroxy-3-methyl-1H-pyrazol-4-yl)pyridine 1-oxide] | ≥ 10000 nM | ≥ 10000 nM | 
Cc1ccc(-c2cnn(-c3ccc(C(=O)OC(C)(C)C)cn3)c2O)cc1 [Compound 1, Tert-butyl 6-(5-hydroxy-4-(p-tolyl)-1H-pyrazol-1-yl)nicotinate] | 1000 to 10000 nM | 100 to 1000 nM | 
Cc1nc(-n2nc(C)c(-c3ccc(C#N)cc3)c2O)ccc1C(=O)O [Compound 19, 6-(4-(4-cyanophenyl)-5-hydroxy-3-methyl-1H-pyrazol-1-yl)-2-methylnicotinic acid] | 1000 to 10000 nM | 1000 to 10000 nM | 
